Our source for the T/C values is PubChem BioAssay AID330 (DTP/NCI, 2004).

Values joined by “and” are separate entries in the source; they are usually repeats but may differ in a detail not shown here. Equal entries are not always repeated. Toxic doses and inconclusive results are not listed.

The test system of this experiment is P388 leukemia ip, CD2F1 mice, survival T/C. As to the kind of experiment: NCI In Vivo Anticancer Drug Screen. Data for tumor model P388 Leukemia (intraperitoneal) in CD2F1 (CDF1) mice. The following applies: endpoint: median survival time, higher = longer survival. The method, boiled down: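 Mice carrying the transplanted tumor received test compound or vehicle. Survival was recorded in each group, and the value is the treated-group measurement divided by that of the vehicle-treated control group.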

The mark [1] stands for this setting: dose: 100.0 mg/kg/injection, schedule: Q01DX001 (ip), vehicle: Klucel (hydroxypropylcellulose) (HPC).
[2] abbreviates: dose: 200.0 mg/kg/injection, schedule: Q01DX001 (ip), vehicle: Klucel (hydroxypropylcellulose) (HPC).
Where [3] appears, read: dose: 400.0 mg/kg/injection, schedule: Q01DX001 (ip), vehicle: Klucel (hydroxypropylcellulose) (HPC).
[4] abbreviates: dose: 25.0 mg/kg/injection, schedule: Q01DX009 (ip), vehicle: saline with Tween-80.
Setting [5] is: dose: 50.0 mg/kg/injection, schedule: Q01DX009 (ip), vehicle: saline with Tween-80.

Take `c1ccc(-c2nnn(CCCN3CCOCC3)n2)cc1`: the T/C is, setting by setting: under setting [1], 100 % of control; under setting [2], 97 % of control; under setting [3], 102 % of control.
As to `CCCCCCCCCCCCCCCC(=O)OCC1OC(n2ccc(N)nc2=O)C(O)C1O` (configuration not stated), the T/C reads like this: (dose: 0.29 mg/kg/injection, schedule: Q01DX009 (ip), vehicle: saline with Tween-80) 104 % of control; (dose: 0.44 mg/kg/injection, schedule: Q01DX009 (ip), vehicle: saline with Tween-80) 104 % of control; (dose: 0.66 mg/kg/injection, schedule: Q01DX009 (ip), vehicle: saline with Tween-80) 122 % of control; (dose: 0.88 mg/kg/injection, schedule: Q01DX009 (ip), vehicle: saline with Tween-80) 152 % of control; (dose: 1.32 mg/kg/injection, schedule: Q01DX009 (ip), vehicle: saline with Tween-80) 166 % of control; (dose: 2.0 mg/kg/injection, schedule: Q01DX009 (ip), vehicle: saline with Tween-80) 185 % of control. Also, the T/C (dose: 3.0 mg/kg/injection, schedule: Q01DX009 (ip), vehicle: saline with Tween-80) was 200 % of control; the T/C (dose: 3.13 mg/kg/injection, schedule: Q04DX003 (ip), vehicle: saline with Tween-80) is 163 % of control; the T/C (dose: 6.25 mg/kg/injection, schedule: Q04DX003 (ip), vehicle: saline with Tween-80) was 181 % of control and 195 % of control; the T/C (dose: 12.5 mg/kg/injection, schedule: Q04DX003 (ip), vehicle: saline sonified) was 204 % of control; the T/C (dose: 12.5 mg/kg/injection, schedule: Q04DX003 (ip), vehicle: saline with Tween-80) was 218 % of control and 222 % of control; the T/C (dose: 15.0 mg/kg/injection, schedule: Q01DX009 (ip), vehicle: saline with Tween-80) was 221 % of control and 345 % of control. For the same molecule, the T/C reads like this: (dose: 20.0 mg/kg/injection, schedule: Q01DX001 (ip), vehicle: saline with Tween-80) 154 % of control; (dose: 20.0 mg/kg/injection, schedule: Q01DX009 (ip), vehicle: saline with Tween-80) 228 % of control and 538 % of control and 548 % of control; (dose: 24.0 mg/kg/injection, schedule: Q01DX009 (ip), vehicle: saline with Tween-80) 344 % of control; under setting [4], 170 % of control and 539 % of control; (dose: 25.0 mg/kg/injection, schedule: Q04DX003 (ip), vehicle: saline sonified) 250 % of control; (dose: 25.0 mg/kg/injection, schedule: Q04DX003 (ip), vehicle: saline with Tween-80) 254 % of control. Moreover, the T/C was 250 % of control and 256 % of control (dose: 31.75 mg/kg/injection, schedule: Q04DX002 (ip), vehicle: Klucel (hydroxypropylcellulose) (HPC)); 194 % of control and 264 % of control (dose: 32.0 mg/kg/injection, schedule: Q04DX003 (ip), vehicle: saline with Tween-80); 181 % of control (dose: 37.5 mg/kg/injection, schedule: Q01DX001 (ip), vehicle: saline with Tween-80); 204 % of control (dose: 40.0 mg/kg/injection, schedule: Q01DX001 (ip), vehicle: saline with Tween-80); 216 % of control and 350 % of control (dose: 48.0 mg/kg/injection, schedule: Q04DX003 (ip), vehicle: saline with Tween-80); 155 % of control (dose: 50.0 mg/kg/injection, schedule: Q01DX001 (ip), vehicle: Klucel (hydroxypropylcellulose) (HPC)). The T/C reads like this: (dose: 50.0 mg/kg/injection, schedule: Q04DX003 (ip), vehicle: saline sonified) 250 % of control; (dose: 60.0 mg/kg/injection, schedule: Q03DX003 (ip), vehicle: saline with Tween-80) 536 % of control; (dose: 62.5 mg/kg/injection, schedule: Q04DX002 (ip), vehicle: Klucel (hydroxypropylcellulose) (HPC)) 263 % of control and 275 % of control; (dose: 70.0 mg/kg/injection, schedule: Q03DX003 (ip), vehicle: saline with Tween-80) 536 % of control; (dose: 72.0 mg/kg/injection, schedule: Q04DX003 (ip), vehicle: saline with Tween-80) 213 % of control and 511 % of control; (dose: 75.0 mg/kg/injection, schedule: Q01DX001 (ip), vehicle: saline with Tween-80) 181 % of control. Further, the T/C runs as follows: (dose: 80.0 mg/kg/injection, schedule: Q03DX003 (ip), vehicle: saline with Tween-80) 459 % of control; (dose: 90.0 mg/kg/injection, schedule: Q03DX003 (ip), vehicle: saline with Tween-80) 378 % of control; (dose: 125.0 mg/kg/injection, schedule: Q04DX002 (ip), vehicle: Klucel (hydroxypropylcellulose) (HPC)) 263 % of control and 275 % of control.
Consider `Cc1[nH]ccc2c(C)c3nc4ccccc4c3cc12`, for which the T/C is 108 % of control (dose: 6.25 mg/kg/injection, schedule: Q04DX002 (ip), vehicle: water); 121 % of control (dose: 12.5 mg/kg/injection, schedule: Q04DX002 (ip), vehicle: water); 163 % of control under setting [4]; 123 % of control (dose: 25.0 mg/kg/injection, schedule: Q04DX002 (ip), vehicle: water); 113 % of control under setting [5]; 153 % of control (dose: 100.0 mg/kg/injection, schedule: Q04DX002 (ip), vehicle: water). The T/C (dose: 160.0 mg/kg/injection, schedule: Q04DX002 (ip), vehicle: distilled water + Tween-80) is 157 % of control; the T/C (dose: 200.0 mg/kg/injection, schedule: Q04DX002 (ip), vehicle: water) was 166 % of control; the T/C (dose: 320.0 mg/kg/injection, schedule: Q04DX002 (ip), vehicle: distilled water + Tween-80) was 188 % of control.
Consider `CCCCCCCCCCCCCCCCCCOCC(O)CN(CCO)CCO` (configuration not stated), for which the T/C reads like this: (dose: 12.5 mg/kg/injection, schedule: Q01DX009 (ip), vehicle: Klucel (hydroxypropylcellulose) (HPC)) 91 % of control; (dose: 25.0 mg/kg/injection, schedule: Q01DX009 (ip), vehicle: Klucel (hydroxypropylcellulose) (HPC)) 91 % of control; (dose: 50.0 mg/kg/injection, schedule: Q01DX009 (ip), vehicle: Klucel (hydroxypropylcellulose) (HPC)) 96 % of control.
As for `O=N[O-].O=N[O-].[Co].[NH-]CC[NH-].[NH-]CC[NH-]`, the T/C is 98 % of control (dose: 6.25 mg/kg/injection, schedule: Q04DX003 (ip), vehicle: water); 96 % of control (dose: 12.5 mg/kg/injection, schedule: Q04DX003 (ip), vehicle: distilled water + Tween-80); 101 % of control (dose: 12.5 mg/kg/injection, schedule: Q04DX003 (ip), vehicle: water); 102 % of control (dose: 25.0 mg/kg/injection, schedule: Q04DX003 (ip), vehicle: water); 99 % of control (dose: 50.0 mg/kg/injection, schedule: Q04DX003 (ip), vehicle: distilled water + Tween-80); 96 % of control (dose: 50.0 mg/kg/injection, schedule: Q04DX003 (ip), vehicle: water). Where the note is “dose: 100.0 mg/kg/injection, schedule: Q04DX003 (ip), vehicle: distilled water + Tween-80”, the T/C was 108 % of control.
For the molecule `O=c1[nH]cnc2cc(N3CCN(Cc4ccccc4)CC3)c([N+](=O)[O-])cc12`, the T/C (dose: 100.0 mg/kg/injection, schedule: Q04DX003 (ip), vehicle: Klucel (hydroxypropylcellulose) (HPC)) was 102 % of control; the T/C (dose: 200.0 mg/kg/injection, schedule: Q04DX003 (ip), vehicle: Klucel (hydroxypropylcellulose) (HPC)) was 98 % of control; the T/C (dose: 400.0 mg/kg/injection, schedule: Q04DX003 (ip), vehicle: Klucel (hydroxypropylcellulose) (HPC)) is 106 % of control.
On to `O=C(CCNC(=O)OCc1ccccc1)NC(CSCc1ccccc1)C(=O)O` (configuration not stated), for which the T/C reads like this: (dose: 6.25 mg/kg/injection, schedule: Q01DX009 (ip), vehicle: water) 100 % of control; (dose: 12.5 mg/kg/injection, schedule: Q01DX009 (ip), vehicle: water) 100 % of control; (dose: 25.0 mg/kg/injection, schedule: Q01DX009 (ip), vehicle: water) 95 % of control; (dose: 50.0 mg/kg/injection, schedule: Q01DX009 (ip), vehicle: water) 100 % of control; (dose: 100.0 mg/kg/injection, schedule: Q01DX009 (ip), vehicle: water) 95 % of control.
As for `O=C1N[C@@H](Cc2ccccc2)C(=O)N2CSC[C@H]12`, the T/C is 99 % of control under setting [1], 102 % of control under setting [2] and 102 % of control under setting [3].
For the molecule `O=CC1(c2ccco2)SCCCS1`, the T/C reads like this: under setting [5], 106 % of control; (dose: 100.0 mg/kg/injection, schedule: Q01DX009 (ip), vehicle: saline with Tween-80) 104 % of control; (dose: 200.0 mg/kg/injection, schedule: Q01DX009 (ip), vehicle: saline with Tween-80) 104 % of control.
As to `Cc1ncc(C(=O)c2cc(Cl)ccc2O)cn1`, the T/C (dose: 100.0 mg/kg/injection, schedule: Q04DX003 (ip), vehicle: saline) is 100 % of control; the T/C (dose: 200.0 mg/kg/injection, schedule: Q04DX003 (ip), vehicle: saline) is 110 % of control; the T/C (dose: 400.0 mg/kg/injection, schedule: Q04DX003 (ip), vehicle: saline) is 100 % of control.
